Source: ChEMBL document CHEMBL1152270, “Cobalt-alkyne complexes with imidazoline ligands as estrogenic carriers: synthesis and pharmacological investigations” (J Med Chem, 2008)
Activity calls are given as the source filed them. No cut-off for these calls is given here.

Experiments:
MCF7 = assay: Antiproliferative activity against human MCF7 cells; format: functional, cell-based
MDA-MB-231 = assay: Antiproliferative activity against human MDA-MB-231 cells; format: functional, cell-based
[1] = target: T1, Estrogen receptor (Homo sapiens) (UniProt P03372); assay: Transactivation of ERalpha in human MCF7-2a cells assessed as luciferase reporter gene expression at 1 uM relative to estradiol; format: cell-based
T1 sequence (whole entry): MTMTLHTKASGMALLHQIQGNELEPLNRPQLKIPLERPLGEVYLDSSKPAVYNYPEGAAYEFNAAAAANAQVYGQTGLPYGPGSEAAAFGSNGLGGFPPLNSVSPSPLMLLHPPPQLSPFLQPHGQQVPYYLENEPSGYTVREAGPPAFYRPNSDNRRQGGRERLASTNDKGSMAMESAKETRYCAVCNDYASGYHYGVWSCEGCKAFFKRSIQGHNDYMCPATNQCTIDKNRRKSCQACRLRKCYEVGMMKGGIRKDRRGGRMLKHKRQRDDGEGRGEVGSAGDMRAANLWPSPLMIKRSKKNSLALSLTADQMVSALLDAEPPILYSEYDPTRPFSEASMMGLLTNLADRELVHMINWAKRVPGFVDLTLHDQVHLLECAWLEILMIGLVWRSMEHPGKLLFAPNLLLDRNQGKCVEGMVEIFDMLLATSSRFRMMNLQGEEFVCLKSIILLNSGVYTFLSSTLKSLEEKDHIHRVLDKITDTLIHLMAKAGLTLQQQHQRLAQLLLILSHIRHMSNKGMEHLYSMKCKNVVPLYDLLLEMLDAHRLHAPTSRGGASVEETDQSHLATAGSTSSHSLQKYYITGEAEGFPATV

Estrogen receptor = target: T2, Estrogen receptor (Homo sapiens, UniProt P03372); assay: Transactivation of ERalpha in human MCF7-2a cells assessed as luciferase reporter gene expression; format: cell-based
T2 sequence (P03372 whole entry): T1 sequence (whole entry)

Q: Which Activity (MCF7) does the source give for `C#CCN1C=NC(c2ccc(OC)cc2Cl)C1c1ccc(OC)cc1Cl` (stereo unspecified) here?
A: The Activity was “inactive”.

Q: What about the Activity (MDA-MB-231) of the same compound?
A: The Activity was “inactive”.

Q: And the Activity [1]?
A: Its Activity is 13%.

Q: Which Activity (MCF7) does the source give for `C#CCN1C=NC(c2ccc(O)cc2Cl)C1c1ccc(O)cc1Cl` (stereo unspecified) here?
A: The Activity was “inactive”.

Q: What about the Activity (MDA-MB-231) of the same compound?
A: Its Activity is “inactive”.

Q: And the EC50 (Estrogen receptor)?
A: The EC50 was 10 nM.
